We go through 2 compounds from patent US20080306107A1, “Compounds” (AstraZeneca AB, priority 2004, published 2008).

For the experiment, the target named is T1, hVR1 (Homo sapiens, UniProt Q8NER1).
T1 construct: expressed in transfected cells
The experiment can be described thus: hVR1 FLIPR (Fluorometric Image Plate Reader) screening assay, IC50 determination. It is filed as cell-based. Particulars: transfected CHO cells stably expressing hVR1; Fluo-4 calcium fluorescence; agonist 50 nM capsaicin or MES buffer pH 5.2. The protocol:
1. hVR1 FLIPR (Fluorometric Image Plate Reader) Screening Assay
Transfected CHO cells, stably expressing hVR1 (15,000 cells/well) are seeded in 50 ul media in a black clear bottom 384 plate (Greiner) and grown in a humidified incubator (37° C., 2% CO2), 24-30 hours prior to experiment.
Subsequently, the media is removed from the cell plate by inversion and 2 μM Fluo-4 is added using a multidrop (Labsystems). Following the 40 minutes dye incubation in the dark at 37° C. and 2% CO2, the extracellular dye present is washed away using an EMBLA (Scatron), leaving the cells in 40 ul of assay buffer (1×HBSS, 10 mM D-Glucose, 1 mM CaCl2, 10 mM HEPES, 10×7.5% NaHCO3 and 2.5 mM Probenecid).
FLIPR Assay —IC50 Determination Protocol
For IC50 determinations the fluorescence is read using FLIPR filter 1 (em […]). A cellular baseline recording is taken for 30 seconds, followed by a 20 μl addition of 10, titrated half-log concentrations of the test compound, yielding cellular concentration ranging from 3 μM to 0.1 nM. […] This consequently leading to a reduction in fluorescence signal and providing a reduced fluorescence reading, compared with no compound, buffer controls. Data is exported by the FLIPR program as a sum of fluorescence calculated under the curve upon the addition of capsaicin. […]

T1 sequence (Q8NER1 whole entry): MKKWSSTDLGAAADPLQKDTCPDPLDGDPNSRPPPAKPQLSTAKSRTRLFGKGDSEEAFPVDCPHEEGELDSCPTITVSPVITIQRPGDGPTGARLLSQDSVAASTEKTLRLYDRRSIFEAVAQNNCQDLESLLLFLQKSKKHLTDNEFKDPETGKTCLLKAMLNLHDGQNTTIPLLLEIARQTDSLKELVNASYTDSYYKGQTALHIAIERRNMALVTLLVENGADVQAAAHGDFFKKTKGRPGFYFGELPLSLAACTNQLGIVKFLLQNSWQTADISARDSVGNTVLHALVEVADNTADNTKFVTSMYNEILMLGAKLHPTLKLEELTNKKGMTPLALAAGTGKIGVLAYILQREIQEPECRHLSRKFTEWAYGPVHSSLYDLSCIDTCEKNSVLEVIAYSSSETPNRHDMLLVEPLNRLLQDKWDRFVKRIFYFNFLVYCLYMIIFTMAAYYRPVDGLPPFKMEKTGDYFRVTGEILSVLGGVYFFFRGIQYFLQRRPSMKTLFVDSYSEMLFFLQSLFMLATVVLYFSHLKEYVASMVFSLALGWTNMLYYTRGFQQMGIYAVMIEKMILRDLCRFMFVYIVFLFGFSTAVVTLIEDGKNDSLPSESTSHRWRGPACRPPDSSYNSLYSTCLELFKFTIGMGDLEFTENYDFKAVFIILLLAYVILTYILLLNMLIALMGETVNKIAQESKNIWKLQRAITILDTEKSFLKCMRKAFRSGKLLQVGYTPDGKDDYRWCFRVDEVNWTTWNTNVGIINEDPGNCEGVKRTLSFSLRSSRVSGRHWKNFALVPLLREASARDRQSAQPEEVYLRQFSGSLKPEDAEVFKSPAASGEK

For orientation: IC50 means the concentration that inhibits the measured activity by half. For `Cc1cc(C(F)(F)F)c2c(N)c(C(=O)NCCc3ccccc3C)sc2n1` [Compound 3, 3-amino-6-methyl-N-[2-(2-methylphenyl)ethyl]-4-(trifluoromethyl)thieno[2,3-b]pyridine-2-carboxamide], the concentration for half-maximal inhibition (IC50) is 0.119 µM.

In the case of `Cc1cc(C(F)(F)F)c2c(N)c(C(=O)NCCc3ccccc3)sc2n1` [Compound 11, 3-amino-6-methyl-N-(2-phenylethyl)-4-(trifluoromethyl)thieno[2,3-b]pyridine-2-carboxamide], the IC50 is 0.716 µM.
